From EPA's ToxValDB 9.5
Values joined by “and” are separate entries in the source; they are usually repeats but may differ in a detail not shown here. Equal values may be shown once.

What was measured:
Rattus norvegicus [1] = conditions: short-term, duration: 28 days, oral, gavage, M, Sprague-Dawley
Mus musculus = conditions: oral
Rattus norvegicus [2] = tested on: Rattus norvegicus
[3] = developmental, duration: 17 days, gavage, F, CD1, Developmental: Delayed postnatal development [eye opening, preputial separation and vaginal opening] and decreased body weight gain …
[4] = developmental, duration: 18 days, gavage, F, Developmental: Decreased number of live births (36 and 31%) and pup survival at 1.1 and 2.0 mg/kg/day, but not […] / decreased number of …
[5] = short-term, duration: 14 days, gavage, M, BALB/c, Body Weight: ~25% decrease in body weight + Hepatic: Increases in liver weight (~160%) and increases in hepatic triglyceride (~66%) and …
[6] = subchronic, duration: 90 days, gavage, M, Reproductive: Decreased sperm motility, viability, and number / degenerative changes in seminiferous tubules / decreased litter size
[7] = short-term, duration: 14 days, oral, gavage, M, Sprague-Dawley, Body Weight: Decreases in body weight at 3 and 5 mg/kg/day (18 and 39%)
[8] = short-term, duration: 14 days, oral, gavage, M, Sprague-Dawley, Immunotoxicological: Decreased relative spleen weight and increases in cytokine levels
[9] = short-term, duration: 14 days, oral, gavage, M, Sprague-Dawley, Other Noncancer (Glucose: Increased serum glucose levels (1.11-fold at 1 mg/kg/day and 1.16-fold at 5 mg/kg/day)
[10] = short-term, duration: 14 days, oral, gavage, M, Sprague-Dawley, Reproductive: 85.4% decrease in serum testosterone and […] increase in estradiol levels at 5 mg/kg/day / atrophy of seminiferous tubule …
[11] = short-term, duration: 14 days, oral, gavage, M, Sprague-Dawley, Reproductive: Large vacuoles between testicular Sertoli cells and spermatogonia

SMILES: O=C(O)C(F)(F)C(F)(F)C(F)(F)C(F)(F)C(F)(F)C(F)(F)C(F)(F)C(F)(F)F [Perfluorononanoic acid]
- LOEL (Rattus norvegicus [1]; Gene expression_Cyp2b2): 0.625 mg/kg-day
- LOEL (Rattus norvegicus [1]; Gene expression_Cyp4a1): 0.625 mg/kg-day
- NOEL (Rattus norvegicus [1]; Hematology_Erythrocytes): 10 mg/kg-day
- NOEL (Rattus norvegicus [1]; Hematology_Hematocrit): 10 mg/kg-day
- NOEL (Rattus norvegicus [1]; Hematology_Hemoglobin): 10 mg/kg-day
- LOEL (Rattus norvegicus [1]; Hematology_Mean corpuscular hemoglobin concentration): 2.5 mg/kg-day
- LOEL (Rattus norvegicus [1]; Hematology_Mean corpuscular volume): 2.5 mg/kg-day
- NOEL (Rattus norvegicus [1]; Hematology_Platelets): 10 mg/kg-day
- LOEL (Rattus norvegicus [1]; Hematology_Reticulocytes): 0.625 mg/kg-day
- LOEL (Rattus norvegicus [1]; Nonneoplastic effects_Bone marrow - Hypocellularity): 2.5 mg/kg-day
- LOEL (Rattus norvegicus [1]; Nonneoplastic effects_Epididymis - Duct, exfoliated germ cell): 2.5 mg/kg-day
- LOEL (Rattus norvegicus [1]; Nonneoplastic effects_Epididymis - Epithelium, apoptosis): 5 mg/kg-day
- LOEL (Rattus norvegicus [1]; Nonneoplastic effects_Epididymis - Hypospermia): 5 mg/kg-day
- LOEL (Rattus norvegicus [1]; Nonneoplastic effects_Forestomach - Epithelium, hyperplasia): 2.5 mg/kg-day
- LOEL (Rattus norvegicus [1]; Nonneoplastic effects_Forestomach - Inflammation, chronic active): 2.5 mg/kg-day
- NOEL (Rattus norvegicus [1]; Nonneoplastic effects_Kidney - Nephropathy, chronic progressive): 10 mg/kg-day
- LOEL (Rattus norvegicus [1]; Nonneoplastic effects_Liver - Hepatocyte, Necrosis): 2.5 mg/kg-day
- LOEL (Rattus norvegicus [1]; Nonneoplastic effects_Liver - Hepatocyte, cytoplasmic alteration): 0.625 mg/kg-day
- LOEL (Rattus norvegicus [1]; Nonneoplastic effects_Liver - Hepatocyte, hypertrophy): 0.625 mg/kg-day
- LOEL (Rattus norvegicus [1]; Nonneoplastic effects_Liver - Hepatocyte, vacuolization cytoplasmic): 1.25 mg/kg-day
- LOEL (Rattus norvegicus [1]; Nonneoplastic effects_Lymph nodes - Mandibular, atrophy): 5 mg/kg-day
- LOEL (Rattus norvegicus [1]; Nonneoplastic effects_Lymph nodes - Mesenteric, atrophy): 5 mg/kg-day
- NOEL (Rattus norvegicus [1]; Nonneoplastic effects_Nose - Olfactory epithelium, degeneration): 10 mg/kg-day
- NOEL (Rattus norvegicus [1]; Nonneoplastic effects_Nose - Olfactory epithelium, hyperplasia): 10 mg/kg-day
- NOEL (Rattus norvegicus [1]; Nonneoplastic effects_Nose - Olfactory epithelium, inflammation, suppurative): 10 mg/kg-day
- NOEL (Rattus norvegicus [1]; Nonneoplastic effects_Nose - Respiratory epithelium, hyperplasia): 10 mg/kg-day
- NOEL (Rattus norvegicus [1]; Nonneoplastic effects_Nose - Respiratory epithelium, inflammation, chronic active): 10 mg/kg-day
- LOEL (Rattus norvegicus [1]; Nonneoplastic effects_Spleen - Atrophy): 5 mg/kg-day
- NOEL (Rattus norvegicus [1]; Nonneoplastic effects_Spleen - Extramedullary hematopoiesis, increased): 10 mg/kg-day
- LOEL (Rattus norvegicus [1]; Nonneoplastic effects_Testes - Germinal epithelium, degeneration): 2.5 mg/kg-day
- LOEL (Rattus norvegicus [1]; Nonneoplastic effects_Testes - Interstitial cell, atrophy): 2.5 mg/kg-day
- LOEL (Rattus norvegicus [1]; Nonneoplastic effects_Testes - Seminiferous tubule, spermatid retention): 2.5 mg/kg-day
- LOEL (Rattus norvegicus [1]; Nonneoplastic effects_Thymus - Atrophy): 2.5 mg/kg-day
- NOEL (Rattus norvegicus [1]; Nonneoplastic effects_Thymus - Lymphocyte, apoptosis): 10 mg/kg-day
- NOEL (Rattus norvegicus [1]; Nonneoplastic effects_Thyroid gland - Follicular cell hypertrophy): 10 mg/kg-day
- LOEL (Rattus norvegicus [1]; Organ weights_Liver - Absolute): 0.625 mg/kg-day
- LOEL (Rattus norvegicus [1]; Organ weights_Liver - Relative): 0.625 mg/kg-day
- LOEL (Rattus norvegicus [1]; Organ weights_R. adrenal gland - Absolute): 0.625 mg/kg-day
- LOEL (Rattus norvegicus [1]; Organ weights_R. adrenal gland - Relative): 2.5 mg/kg-day
- LOEL (Rattus norvegicus [1]; Organ weights_R. kidney - Absolute): 2.5 mg/kg-day
- LOEL (Rattus norvegicus [1]; Organ weights_R. kidney - Relative): 0.625 mg/kg-day
- LOEL (Rattus norvegicus [1]; Organ weights_R. testis - Absolute): 2.5 mg/kg-day
- LOEL (Rattus norvegicus [1]; Organ weights_Spleen - Absolute): 1.25 mg/kg-day
- LOEL (Rattus norvegicus [1]; Organ weights_Spleen - Relative): 1.25 mg/kg-day
- LOEL (Rattus norvegicus [1]; Organ weights_Thymus - Absolute): 1.25 mg/kg-day
- LOEL (Rattus norvegicus [1]; Organ weights_Thymus - Relative): 1.25 mg/kg-day
- LOEL (Rattus norvegicus [1]; Organ weights_Thyroid gland - Absolute): 2.5 mg/kg-day
- LOEL (Rattus norvegicus [1]; Organ weights_Thyroid gland - Relative): 2.5 mg/kg-day
- LOEL (Rattus norvegicus [1]; Reproductive toxicity_Altered sperm parameters): 1.25 mg/kg-day
- LOEL (Rattus norvegicus [1]; body weight): 1.25 mg/kg-day
- NOAEL (Mus musculus; developmental, duration: 16 days, gavage, M/F, CD1, developmental): 1 mg/kg-day
- LOAEL (Mus musculus; [3]): 3 mg/kg-day and 5 mg/kg-day
- NOAEL (Mus musculus; [3]): 1 mg/kg-day
- NOAEL (Mus musculus; developmental, duration: 18 days, gavage, F, Body Weight: No alterations in maternal body weight or gestational weight gain + Developmental: No alterations in the number of live pups …): 2 mg/kg-day
- LOAEL (Mus musculus; [4]): 1.1 mg/kg-day
- NOAEL (Mus musculus; [4]): 0.83 mg/kg-day
- LOAEL (Mus musculus; reproduction developmental, duration: 17 days, gavage, F, CD1, Body Weight: 43% maternal weight loss at GD 13): 10 mg/kg-day
- NOAEL (Mus musculus; reproduction developmental, duration: 17 days, gavage, F, CD1, Hepatic: Increases in absolute and relative liver weights in dams on GD 17 and on post-weaning day 28 at ?1 mg/kg/day): 10 mg/kg-day
- NOAEL (Mus musculus; reproduction developmental, duration: 18 days, gavage, F, Body Weight: No alterations in maternal body weight or gestational weight gain + Hepatic: Increase in dam liver weight at ?0.83 mg/kg/day): 2 mg/kg-day
- NOAEL (Mus musculus; short-term, duration: 7 days, gavage, M, Hepatic: Hepatocellular hypertrophy, steatosis, and increased hepatic triglyceride levels): 10 mg/kg-day
- LOAEL (Mus musculus; short-term, duration: 14 days, diet, M/F, CD1, Death: 100% mortality before day 14): 54 mg/kg-day
- NOAEL (Mus musculus; short-term, duration: 14 days, diet, M/F, CD1, Hepatic: 50-70% increase in absolute liver weight at ?0.5 mg/kg/day): 5.3 mg/kg-day
- LOAEL (Mus musculus; [5]): 5 mg/kg-day
- NOAEL (Mus musculus; [5]): 1 mg/kg-day
- LOAEL (Mus musculus; short-term, duration: 14 days, gavage, M, BALB/c, Immunotoxicological: Decreases in the percentages of F4/80+ and CD49b+ cells in the spleen / no alteration in the response of splenic …): 1 mg/kg-day
- NOAEL (Mus musculus; subchronic, duration: 90 days, gavage, M, Hepatic: 33% decrease in serum cholesterol): 0.5 mg/kg-day
- LOAEL (Mus musculus; [6]): 0.5 mg/kg-day
- NOAEL (Mus musculus; [6]): 0.2 mg/kg-day
- NOAEL (Rattus norvegicus [2]; acute, duration: 4 hours, inhalation, nose only, M, CD, Body Weight: Reduced 18% 5 days after exposure + Hepatic: 28% increase in absolute liver weight 5 days after exposure to ?67 mg/m3 + …): 67 mg/m3
- LOAEL (Rattus norvegicus [2]; acute, duration: 4 hours, inhalation, nose only, M, CD, Body Weight: Reduced 18% 5 days after exposure + Respiratory: Lung noise / labored breathing during and after exposure): 590 mg/m3
- LOAEL (Rattus norvegicus [2]; acute, duration: 4 hours, inhalation, nose only, M, CD, Death: 14-day LC50): 820 mg/m3
- LOAEL (Rattus norvegicus [2]; developmental, duration: 20 days, oral, gavage, M/F, Sprague-Dawley, Body Weight: Reduced maternal body weight / approximately 33% on GD 7 and 10% on GD 20 + Developmental: Decreased birth weight in female …): 5 mg/kg-day
- LOAEL (Rattus norvegicus [2]; [7]): 3 mg/kg-day
- NOAEL (Rattus norvegicus [2]; [7]): 1 mg/kg-day
- NOAEL (Rattus norvegicus [2]; short-term, duration: 14 days, oral, gavage, M, Sprague-Dawley, Hepatic: Decreased HDL levels at ?1 mg/kg/day): 5 mg/kg-day
- NOAEL (Rattus norvegicus [2]; short-term, duration: 14 days, oral, gavage, M, Sprague-Dawley, Hepatic: Hepatocellular vacuolation and lipid accumulation at 5 mg/kg/day): 5 mg/kg-day
- LOAEL (Rattus norvegicus [2]; short-term, duration: 14 days, oral, gavage, M, Sprague-Dawley, Immunotoxicological: 24% increase in relative thymus weight at 1 mg/kg/day / 20% decrease in thymus weight at 3 or 5 mg/kg/day, increases …): 1 mg/kg-day
- LOAEL (Rattus norvegicus [2]; [8]): 5 mg/kg-day
- NOAEL (Rattus norvegicus [2]; [8]): 3 mg/kg-day
- LOAEL (Rattus norvegicus [2]; [9]): 1 mg/kg-day
- NOAEL (Rattus norvegicus [2]; [9]): 0.2 mg/kg-day
- LOAEL (Rattus norvegicus [2]; [10]): 5 mg/kg-day
- NOAEL (Rattus norvegicus [2]; [10]): 3 mg/kg-day
- LOAEL (Rattus norvegicus [2]; [11]): 5 mg/kg-day
- NOAEL (Rattus norvegicus [2]; [11]): 3 mg/kg-day
- LOAEL (Rattus norvegicus [2]; short-term, duration: 14 days, oral, gavage, Wistar, Body Weight: Decreased body weight / magnitude of effect was not reported + Endocrine: Decreased androstenedione and testosterone …): 5 mg/kg-day
